Consider six compounds from ChEMBL document CHEMBL1201862, “PubChem BioAssay data set” (2004).

Calls of active or inactive are those of the source.

Test [1] deals with T1, Neuropeptides B/W receptor type 1 (Homo sapiens, UniProt P48145).
T1 sequence (P48145 whole entry): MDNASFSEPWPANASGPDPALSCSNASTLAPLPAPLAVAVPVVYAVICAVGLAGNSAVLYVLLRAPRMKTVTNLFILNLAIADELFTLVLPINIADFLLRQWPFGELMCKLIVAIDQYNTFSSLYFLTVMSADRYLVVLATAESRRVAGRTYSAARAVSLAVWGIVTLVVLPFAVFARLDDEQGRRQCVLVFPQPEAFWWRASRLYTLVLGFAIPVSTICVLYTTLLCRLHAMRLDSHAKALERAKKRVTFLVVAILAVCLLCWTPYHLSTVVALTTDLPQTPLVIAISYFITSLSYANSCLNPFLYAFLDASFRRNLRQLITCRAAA
The test is described as follows: human NPBW1 receptor blockade, IC50 – cell-based, fluorescence, dose response, set 5, late-stage follow-up (AID 588566). The class given is functional.

The target of test [2] is Melanin-concentrating hormone receptor 1 (Homo sapiens, UniProt Q99705). Nature of the test: Late-stage fluorescence-based counterscreen for antagonists of the G-protein coupled receptor 7 (GPR7): cell-based dose response assay to identify antagonists of the melanin-concentrating hormone receptor 1 (MCHR1) Set 5. The class given is functional.
Sequence of Melanin-concentrating hormone receptor 1 (Q99705 whole entry): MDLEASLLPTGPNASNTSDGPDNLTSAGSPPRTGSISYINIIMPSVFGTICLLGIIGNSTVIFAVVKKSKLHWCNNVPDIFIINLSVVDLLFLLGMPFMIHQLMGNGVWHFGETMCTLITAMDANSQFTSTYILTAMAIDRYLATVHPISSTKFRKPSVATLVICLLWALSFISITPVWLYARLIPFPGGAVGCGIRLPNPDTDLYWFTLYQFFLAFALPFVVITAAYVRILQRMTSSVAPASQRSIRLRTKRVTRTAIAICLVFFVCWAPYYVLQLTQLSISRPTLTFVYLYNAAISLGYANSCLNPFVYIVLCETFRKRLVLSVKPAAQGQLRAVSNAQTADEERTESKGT
Test [3] has as its system BJ. Nature of the test: BJ-TERT fibroblast viability loss – cell-based, RAS-independent, luminescence, dose response (AID 1933). The class given is functional. Conditions: Homo sapiens.
The subject of test [4] is BJ. The test is described as follows: cells. The class given is functional, cell-based. Conditions: Homo sapiens, read-out: EC50.
For test [5], the system named is BJ. The test is described as follows: BJ-TERT-LT-ST fibroblast viability loss – cell-based, RAS-independent, luminescence, dose response (AID 1935).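 Further: BJ fibroblasts immortalized with TERT plus LT and ST oncogenes.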 The class given is functional. The conditions noted are these: Homo sapiens.
A short description of test [6]: DRD fibroblast viability loss – cell-based, non-viral oncogenic, luminescence, dose response (AID 1934). The class given is functional. Conditions: Homo sapiens.
The subject of test [7] is BJ. Nature of the test: growth inhibition of engineered Ras-driven BJ cells – cell-based, alamar blue fluorescence, cherrypicked samples, dose response (AID 2631).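 Further: confirmatory dose-response assay in RAS-dependent BJ fibroblasts engineered with TERT, LT and ST, with cytotoxicity read by fluorescence.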 In kind it is functional. The conditions noted are these: Homo sapiens.
The subject of the next test is Vero. The test is described as follows: viability of Vero cells under compound – cytotoxicity control for flavivirus capping enzyme inhibitors (AID 588742). In kind it is functional. The conditions noted are these: Chlorocebus sabaeus.
In the next test the target is Genome polyprotein (dengue virus type 2, UniProt P29990). Nature of the test: flavivirus cap methylation enzyme inhibition – biochemical, confirmation dose response, primary screen (AID 588689). In kind it is functional.
Sequence of Genome polyprotein (P29990 2492-3391 limits assumed): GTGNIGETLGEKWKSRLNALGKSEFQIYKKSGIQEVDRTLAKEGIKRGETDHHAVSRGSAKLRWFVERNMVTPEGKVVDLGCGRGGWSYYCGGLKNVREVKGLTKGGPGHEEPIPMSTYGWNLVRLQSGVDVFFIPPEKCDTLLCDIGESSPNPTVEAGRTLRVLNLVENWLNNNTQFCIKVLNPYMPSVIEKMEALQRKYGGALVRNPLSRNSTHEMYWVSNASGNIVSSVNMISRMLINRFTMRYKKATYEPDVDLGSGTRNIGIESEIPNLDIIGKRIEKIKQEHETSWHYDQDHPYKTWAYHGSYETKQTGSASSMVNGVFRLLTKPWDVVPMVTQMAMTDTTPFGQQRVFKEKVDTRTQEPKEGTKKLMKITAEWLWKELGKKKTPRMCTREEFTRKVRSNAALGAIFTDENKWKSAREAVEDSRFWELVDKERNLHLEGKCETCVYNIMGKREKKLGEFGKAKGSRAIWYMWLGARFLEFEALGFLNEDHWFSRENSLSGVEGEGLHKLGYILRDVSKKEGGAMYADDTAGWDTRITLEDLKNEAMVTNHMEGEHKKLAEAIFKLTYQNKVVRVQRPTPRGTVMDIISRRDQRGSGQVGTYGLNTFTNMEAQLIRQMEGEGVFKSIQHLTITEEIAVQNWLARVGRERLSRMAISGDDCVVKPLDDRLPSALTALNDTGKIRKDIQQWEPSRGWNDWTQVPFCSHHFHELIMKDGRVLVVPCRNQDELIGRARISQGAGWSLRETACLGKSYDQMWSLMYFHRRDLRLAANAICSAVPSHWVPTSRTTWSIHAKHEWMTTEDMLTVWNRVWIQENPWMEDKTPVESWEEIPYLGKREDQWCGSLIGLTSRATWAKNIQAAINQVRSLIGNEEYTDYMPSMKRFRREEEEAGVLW
Test [8] concerns the target T2, Long-chain-fatty-acid--AMP ligase FadD28 (Mycobacterium tuberculosis, UniProt P9WQ59).
T2 sequence (P9WQ59 whole entry): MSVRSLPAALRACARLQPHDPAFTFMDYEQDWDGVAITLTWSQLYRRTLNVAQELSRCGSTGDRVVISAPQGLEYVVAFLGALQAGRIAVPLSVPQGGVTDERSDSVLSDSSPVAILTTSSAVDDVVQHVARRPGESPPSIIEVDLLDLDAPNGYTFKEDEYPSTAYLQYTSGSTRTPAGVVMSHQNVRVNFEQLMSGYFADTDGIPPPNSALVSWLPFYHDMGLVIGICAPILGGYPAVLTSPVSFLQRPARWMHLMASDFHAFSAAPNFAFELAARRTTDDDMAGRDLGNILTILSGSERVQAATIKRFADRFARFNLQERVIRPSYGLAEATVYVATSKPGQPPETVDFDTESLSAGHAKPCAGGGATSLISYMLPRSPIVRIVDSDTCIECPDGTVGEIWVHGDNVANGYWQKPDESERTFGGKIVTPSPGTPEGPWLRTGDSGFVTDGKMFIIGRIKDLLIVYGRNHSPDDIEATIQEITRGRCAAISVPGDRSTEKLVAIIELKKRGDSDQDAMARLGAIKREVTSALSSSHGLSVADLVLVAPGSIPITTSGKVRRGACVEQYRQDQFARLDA
Nature of the test: Fluorescence polarization aasay to screen for inhibitors that compete for the binding of FadD28 to a bisubstrate Measured in Biochemical System Using Plate Reader - 2147-01_Inhibitor_Dose_CherryPick_Activity. The class given is functional, Mycobacterium tuberculosis H37Rv.

Test [9] can be described thus: HEK-293T cell viability reduction – luminescence, B-cell screen hits, cytotoxicity control for BCR NF-kB inhibitor project, dose response (AID 489021).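 Further: HEK-293T cells carrying an NF-kB luciferase reporter; cells exposed to compound for about 14 hours before viability readout.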 The class given is functional, cell-based.
Test [10] addresses Luciferin 4-monooxygenase (Photinus pyralis, UniProt P08659). Nature of the test: inhibition of purified Photinus pyralis luciferase – biochemical, dry powder samples, plate reader, dose response (AID 588451).
The test system of test [11] is H4. Nature of the test: inhibitors of control reporter signal in H4 cells – cell-based, plate reader, dry powder samples, counter-screen for prion reporter project, dose response (AID 540255). Conditions: Homo sapiens. The class given is functional.
Test [12] relates to H4. Nature of the test: Amyloid Precursor 5' UTR neuroblastoma cell reporter line Measured in Cell-Based System Using Plate Reader - 2078-04_Inhibitor_Dose_DryPowder_Activity. [Related pubchem assays (depositor defined):AID488894]. In kind it is functional. The conditions noted are these: Homo sapiens.
Test [13] deals with H4. The test is described as follows: Inhibitors of Prion Protein 5' UTR mRNA Measured in Cell-Based System Using Plate Reader - 2078-01_Inhibitor_Dose_DryPowder_Activity. [Related pubchem assays (depositor defined):AID488894]. The class given is functional. The conditions noted are these: Homo sapiens.
Test [14] concerns the target T3, Sentrin-specific protease 8 (Homo sapiens, UniProt Q96LD8).
T3 sequence (Q96LD8 whole entry): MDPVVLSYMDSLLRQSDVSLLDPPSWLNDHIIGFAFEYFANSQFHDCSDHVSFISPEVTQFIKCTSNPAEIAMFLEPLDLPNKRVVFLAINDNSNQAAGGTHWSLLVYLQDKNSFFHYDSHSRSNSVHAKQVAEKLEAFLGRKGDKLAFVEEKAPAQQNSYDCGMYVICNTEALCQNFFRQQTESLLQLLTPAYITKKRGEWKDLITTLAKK
The test is described as follows: inhibition of human SENP8 cleavage activity – biochemical, luminescence, SAR follow-up (AID 504501). The class given is functional.

Test [15] has as its target T3, Sentrin-specific protease 8. Nature of the test: inhibition of sentrin protease 8 – biochemical, luminescence, set 2, SAR follow-up (AID 588601). In kind it is functional.
The next test concerns the target T4, Caspase-3 (Homo sapiens, UniProt P42574).
T4 sequence (P42574 whole entry): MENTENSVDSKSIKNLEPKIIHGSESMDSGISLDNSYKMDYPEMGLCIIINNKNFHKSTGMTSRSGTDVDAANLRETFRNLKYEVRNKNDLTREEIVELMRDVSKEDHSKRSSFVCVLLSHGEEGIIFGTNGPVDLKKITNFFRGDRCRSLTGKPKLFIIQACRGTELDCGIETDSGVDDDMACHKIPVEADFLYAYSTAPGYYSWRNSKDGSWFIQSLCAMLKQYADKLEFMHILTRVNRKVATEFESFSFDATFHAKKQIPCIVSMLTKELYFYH
Nature of the test: SAR Analysis of small molecule inhibitors of Sentrin-specific proteases (SENPs) using a Caspase-3 Selectivity assay. [Related pubchem assays (depositor defined):AID2540, AID2599, AID434973, AID489001]. The class given is functional.

The target of test [16] is T5, Sentrin-specific protease 7 (Homo sapiens, UniProt Q9BQF6).
T5 sequence (Q9BQF6 whole entry): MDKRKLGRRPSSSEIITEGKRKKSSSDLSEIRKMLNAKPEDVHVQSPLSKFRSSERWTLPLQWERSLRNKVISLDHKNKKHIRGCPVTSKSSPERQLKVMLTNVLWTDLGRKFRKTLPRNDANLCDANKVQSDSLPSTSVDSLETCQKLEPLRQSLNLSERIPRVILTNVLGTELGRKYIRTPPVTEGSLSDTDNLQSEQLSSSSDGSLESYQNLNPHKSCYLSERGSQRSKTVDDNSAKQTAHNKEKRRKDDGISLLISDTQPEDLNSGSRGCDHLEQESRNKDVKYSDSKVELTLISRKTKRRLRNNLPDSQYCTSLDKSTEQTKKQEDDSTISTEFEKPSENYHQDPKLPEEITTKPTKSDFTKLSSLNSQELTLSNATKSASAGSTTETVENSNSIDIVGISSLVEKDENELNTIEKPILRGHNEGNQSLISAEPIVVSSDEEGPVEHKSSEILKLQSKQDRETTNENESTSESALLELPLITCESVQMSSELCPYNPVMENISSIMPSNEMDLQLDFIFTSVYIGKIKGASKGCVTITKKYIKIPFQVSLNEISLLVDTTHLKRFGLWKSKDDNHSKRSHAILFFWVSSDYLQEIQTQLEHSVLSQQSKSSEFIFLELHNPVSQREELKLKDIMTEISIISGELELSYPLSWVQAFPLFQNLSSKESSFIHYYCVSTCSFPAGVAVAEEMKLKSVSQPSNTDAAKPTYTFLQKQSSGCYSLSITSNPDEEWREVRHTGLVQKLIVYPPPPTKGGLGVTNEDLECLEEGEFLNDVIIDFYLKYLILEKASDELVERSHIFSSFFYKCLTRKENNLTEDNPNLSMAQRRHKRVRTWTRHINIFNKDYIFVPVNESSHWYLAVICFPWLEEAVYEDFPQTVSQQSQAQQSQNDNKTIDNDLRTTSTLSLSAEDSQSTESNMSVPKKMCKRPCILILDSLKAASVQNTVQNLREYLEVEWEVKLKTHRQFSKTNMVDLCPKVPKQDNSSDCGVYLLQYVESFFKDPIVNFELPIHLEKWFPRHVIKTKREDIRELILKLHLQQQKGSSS
Nature of the test: inhibition of human SENP7 cleavage activity – biochemical, luminescence, set 2, SAR follow-up (AID 588600). The class given is functional.

The target in test [17] is T6, Sentrin-specific protease 6 (Homo sapiens, UniProt Q9GZR1).
T6 sequence (Q9GZR1 whole entry): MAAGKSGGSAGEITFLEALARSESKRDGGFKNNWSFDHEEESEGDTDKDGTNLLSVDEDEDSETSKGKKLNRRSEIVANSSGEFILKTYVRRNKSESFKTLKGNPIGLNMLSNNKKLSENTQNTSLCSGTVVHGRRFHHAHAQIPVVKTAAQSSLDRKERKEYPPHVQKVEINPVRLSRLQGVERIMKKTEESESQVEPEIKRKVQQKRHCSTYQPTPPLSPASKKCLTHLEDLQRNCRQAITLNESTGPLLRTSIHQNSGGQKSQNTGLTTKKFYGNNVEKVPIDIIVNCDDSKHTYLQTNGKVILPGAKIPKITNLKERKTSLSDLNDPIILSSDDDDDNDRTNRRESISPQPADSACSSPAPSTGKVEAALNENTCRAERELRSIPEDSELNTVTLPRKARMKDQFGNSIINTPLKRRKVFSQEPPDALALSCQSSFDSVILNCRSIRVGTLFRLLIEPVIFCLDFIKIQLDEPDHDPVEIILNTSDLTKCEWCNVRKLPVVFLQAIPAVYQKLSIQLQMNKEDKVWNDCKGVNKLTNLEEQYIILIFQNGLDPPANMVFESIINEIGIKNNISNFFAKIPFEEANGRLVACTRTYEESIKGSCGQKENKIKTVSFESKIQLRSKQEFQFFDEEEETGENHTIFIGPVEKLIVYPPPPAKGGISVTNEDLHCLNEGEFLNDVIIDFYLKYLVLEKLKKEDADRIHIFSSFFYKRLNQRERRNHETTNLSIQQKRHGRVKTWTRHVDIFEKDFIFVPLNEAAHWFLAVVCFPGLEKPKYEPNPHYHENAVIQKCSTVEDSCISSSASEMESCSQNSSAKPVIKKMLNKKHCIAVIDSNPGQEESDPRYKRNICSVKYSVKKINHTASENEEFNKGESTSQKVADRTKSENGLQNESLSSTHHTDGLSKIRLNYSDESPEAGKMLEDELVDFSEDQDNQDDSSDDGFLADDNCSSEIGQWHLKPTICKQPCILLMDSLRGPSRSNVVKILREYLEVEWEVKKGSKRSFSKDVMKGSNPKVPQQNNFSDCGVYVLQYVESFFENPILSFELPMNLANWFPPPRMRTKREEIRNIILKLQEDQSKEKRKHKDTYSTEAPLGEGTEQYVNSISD
The test is described as follows: SAR Analysis of small molecule inhibitors of Sentrin-specific protease 6 (SENP6) using a Luminescent assay. [Related pubchem assays (depositor defined):AID2582, AID2599]. The class given is functional.

Test [18] concerns the target T6, Sentrin-specific protease 6. Nature of the test: inhibition of human SENP6 catalytic domain – biochemical, luminescence, set 2, SAR follow-up (AID 588598). The class given is functional.
Test [19] has as its target T5, Sentrin-specific protease 7. The test is described as follows: inhibition of human SENP7 cleavage activity – biochemical, luminescence, SAR follow-up (AID 504497). In kind it is functional.

Sequence of Luciferin 4-monooxygenase (P08659 whole entry): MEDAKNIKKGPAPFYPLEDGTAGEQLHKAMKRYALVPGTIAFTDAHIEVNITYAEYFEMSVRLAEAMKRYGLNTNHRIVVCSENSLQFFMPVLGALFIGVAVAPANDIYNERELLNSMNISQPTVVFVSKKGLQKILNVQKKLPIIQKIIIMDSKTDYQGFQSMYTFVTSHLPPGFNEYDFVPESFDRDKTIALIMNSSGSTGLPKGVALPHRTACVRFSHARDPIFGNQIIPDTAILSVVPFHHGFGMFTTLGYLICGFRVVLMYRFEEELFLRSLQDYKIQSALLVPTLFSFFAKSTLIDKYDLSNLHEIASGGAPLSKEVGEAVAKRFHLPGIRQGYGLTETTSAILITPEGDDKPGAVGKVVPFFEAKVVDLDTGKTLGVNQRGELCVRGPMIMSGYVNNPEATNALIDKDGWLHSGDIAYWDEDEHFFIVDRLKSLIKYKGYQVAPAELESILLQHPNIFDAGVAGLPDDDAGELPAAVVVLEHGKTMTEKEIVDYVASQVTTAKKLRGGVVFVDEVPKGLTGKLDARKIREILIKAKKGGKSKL

Consider `CSc1ccc(Oc2cnn(Cc3cccc4ccccc34)c(=O)c2Cl)cc1`, for which the IC50 in [1] was 4.59 µM (active); in [2], 9.04 µM (active).
`Cc1ccc(/C=C2\SC(=S)N(CC3CCCO3)C2=O)o1` (centres undefined): the EC50 was 35.8 µM (inconclusive) in the test with BJ [3]; > 150 µM (not active) in the test on BJ [4]; > 150 µM (not active) in the test with BJ [5]; 16.4 µM (active) in test [6]; > 133 µM (inactive) in the test with BJ [7].
`O=C(Nc1sc2c(c1C(=O)O)CCCC2)c1cccc(Cl)c1`: the CC50 with Vero was > 40 µM (active). For the same compound, the IC50 on Genome polyprotein is 71.8 µM (active). Moreover, the AC50 in test [8] is > 100 µM (inactive).
On to `Cc1ccc(NC(=O)O/N=C/c2c(C)nn(C(C)(C)C)c2C)cc1Cl`, for which the IC50 in test [9] is > 80 µM (inactive). Also, the AC50 is 14.8 µM (active) in [10], 0.237 µM (active) in the test on H4 [11], 0.125 µM (active) with H4 [12] and 0.099 µM (active) in the test with H4 [13].
Regarding `O=C(C1CCCCN1Cc1cccc2ccccc12)N1CCN(c2ccc([N+](=O)[O-])cc2)CC1` (centres undefined), the IC50 in [1] and in test [2] was > 20 µM (inactive) each time.
`Fc1ccc(/C=C/c2noc(-c3ccccc3I)n2)cc1`: the IC50 was 23 µM (active) in test [14]; 7.41 µM (active) in test [15]; 24 µM (active) on Caspase-3; 7.78 µM (active) in test [16]; 20 µM (active) in test [17]; 7.33 µM (active) in test [18]. Also, the IC50 in [19] is 6.4 µM (active).
